Measurements published in patent publication US9416173B2, “Peptide and conjugate vaccines for fungal infections” (priority 2011, dated 2016).

Tests used:
[1] = system: C. albicans strain 3153A; test: Fungal challenge and assessment of protection (disseminated candidiasis), peptide vaccines; type: in vivo, BALB/c mice; settings: for protection against disseminated candidiasis (survival) / viable fungal units (CFUs) in kidneys: peptide-pulsed DC vaccine; for protection against disseminated candidiasis (survival): vs DPBS or DCs+CFA controls; for viable fungal units (CFUs) in kidneys: vs controls, detection limit 50 CFU per kidney pair; for survival rate: general peptides, experiment terminated 80 days post challenge
Method: C. albicans 3153A and SC5314, C. krusei (ATCC 6258), C. glabrata (ATCC 2001) and Saccharomyces cerevisiae (ATCC 9463) were obtained from the American Type Culture Collection (ATCC; Manassas, Va.) and were grown as stationary-phase yeast cells in glucose-yeast extract-peptone broth at 37° C., washed and suspended to the appropriate cell concentration (5×10^6/ml) in Dulbecco's PBS (DPBS; Sigma-Aldrich, St. Louis, Mo.), and used to infect mice intravenously (i.v.) as previously described (25, 29). C. albicans strain 3153A was also used for serum antibody absorption, immunofluorescence staining and flow cytometric analysis. Unless otherwise indicated, C. albicans strain 3153A was used to challenge the mice in the examples below.
(§1) Two weeks after the second boost, immune and control mice were infected intravenously (i.v.) with a lethal dose of live C. albicans yeast cells (5×10^5 in 0.1 ml of DPBS) prepared as described above and as before (53). Passively immunized mice (below) also received the same challenge dose. Protection was evaluated by monitoring animal survival for 80-100 days. The mice were monitored 2-3 times daily for the development of a moribund state, defined as being listless, disinterested in food or water, and nonreactive to finger probing. At the time that a mouse was deemed moribund, it was sacrificed and their kidneys (for some experiments, brains) were homogenized in DPBS and plated onto a nutrient agar to determine colony forming units (CFUs). After 80-100 days, the experiments were terminated and all the survivors at that time were sacrificed and their kidneys were assessed for CFU as before. The lowest limit of detection for the CFU assay was 50 CFU per kidney pair.
Two weeks after the second boost, immune and control mice were infected i.v. with a lethal dose of live C. albicans yeast cells (5×10^5 in 0.1 ml of DPBS). Passively immunized mice also received the same challenge dose. Protection was evaluated by monitoring animal survival for up to 120 days and by quantifying the number of CFU (mean±SE) per kidney pairs. Median survival times (MST) were statistically evaluated by Kaplan-Meier (GraphPad Prism, version 4). In all analyses, there were five mice per group (n=5), and a two-tailed t test was used.

[2] = system: synthetic peptides; test: ELISA antibody responses to peptide-pulsed DC vaccines; type: in vivo, BALB/c mice; settings: general fungal peptides, peptide-pulsed DC + CFA
Method: The murine dendritic cells (DCs) were pulsed in vitro with peptide candidate vaccine antigens as previously described (53). Briefly, DCs in culture were pulsed with the peptide antigen (1 μM) on day 6. On day 7, PGE2 (10^-7M) was added along with LPS (2 μg/ml, Sigma-Aldrich) for 24 h. On day 9, antigen-pulsed DCs were washed extensively and 5×10^5 in 200 μl DPBS were given intraperitoneally (i.p.) as the priming dose to mice. The mice were boosted i.p. at day 14 with fresh antigen-pulsed DCs and boosted a second time at day 28 with antigen (10 μg) emulsified in complete Freund adjuvant (CFA) given subcutaneously (s.c.).
Sera were ELISA analyzed for antibody titers. For DC-based immunization, control groups consisted of mice given DCs alone at the time of priming and first booster followed by CFA alone at the time of the second booster, or DPBS alone for all three injections. For Fba peptides administered with alum or MPL, control groups were mice given adjuvant alone or DPBS buffer. […] Synthetic Fba-MAP (GenScript) was dissolved at 5 μg/ml in PBS (pH 7.4) and used to coat 96-well ELISA plates for testing duplicate serial 2-fold dilutions of samples of each immune serum and control sera. Color development for each well was achieved by use of secondary antibody (goat anti-mouse polyvalent Ig-HRP) and substrate (O-phenylenediamine and H2O2) and OD determined at 492 nm.
FIGS. 1A-1C show the antibody responses in BALB/c mice against peptide-pulsed DC vaccines. Sera from mice immunized with the six synthetic peptide carriers presented on dendritic cells (DCs) for the priming and first booster immunizations and emulsified in complete Freund adjuvant (CFA) for the second booster were tested by ELISA for antibody responses against the peptides. Control groups consisted of mice given the same regimen for priming and boosters except that the peptides were omitted (DCs+CFA) or DPBS only was used at each injection time. […] The bars of each panel indicate means of CFUs per kidney pair for each group. The lowest limit of detection for the CFU assay is 50 CFU per kidney pair.
Sera were ELISA analyzed for antibody titers. Control groups consisted of mice given DCs alone at the time of priming and first booster followed by DPBS at the time of the second booster, DPBS for the priming and first booster and CFA alone at the time of the second booster, DPBS alone for all three injections, or DCs alone for priming and first booster followed by CFA alone at the time of the second booster. Briefly, synthetic peptides were dissolved at 10 μg/ml in PBS (pH 7.4). […] Color development for each well was achieved by secondary antibody (goat anti-mouse polyvalent immunoglobulin-HRP, Sigma) and substrate (O-phenylenediamine and H2O2) and Optical Density (OD) determined at 492 nm.

[3] = system: C. albicans; test: Immunofluorescence and flow cytometric analysis of binding to fungal cell surface; type: cell-based; settings: live fungal cells reacted with immune serum of peptide-immunized mice
Method: Distribution of the Fba peptide epitope on yeast cells was determined by indirect immunofluorescence. […] The yeast cells were suspended in the antibody preparation and incubated while shaking by rotation at room temperature (RT, 22-24° C.) for 1-2 h. After incubation, the yeast cells were washed with DPBS three times, suspended in 200 μl of fluorescein-labeled goat anti-mouse IgM (u-chain specific; Sigma) (stock solution, 1 mg/ml; working solution, 20 μg/ml of DPBS) and incubated at RT as described above for 0.5 h. The yeast cells were washed with DPBS three times and suspended in 200 μl of DPBS. The cells were observed by confocal microscopy (LSM 510, Zeiss). The distribution of the Fba peptide epitope on the yeast cell surface was compared to that obtained with yeast cells fluorescently stained for detection of the MAb B6.1 epitope. […] For flow cytometric analysis, following the last incubation, cells were washed as described above and suspended in the 500 μl DPBS buffer. Flow cytometry was performed using a BD Biosciences FACSVantage SE equipped with an argon laser excitation at 488 nm. 10,000 cells in each sample were analyzed (CellQuest Pro software).
Distribution of the β-(Man)3 and Fba peptide epitopes on yeast cells was determined by use of immune serum for flow cytometric analysis and indirect immunofluorescence. One hundred microliters of immune serum (1:100 dilution in 1% BSA/DPBS) was added to a pellet of C. albicans yeast cells (5×10^6) that was prewashed with DPBS buffer three times. The yeast cells were suspended in the immune serum [from β-(Man)3-Fba-TT immunized mice] preparation and incubated while shaking by rotation at room temperature (RT, 22-24° C.) for 1-2 h. After incubation, the yeast cells were washed with DPBS three times, suspended in 200 μl of fluorescein-labeled goat anti-mouse IgM (μ-chain specific; Sigma) (stock solution, 1 mg/ml; working solution, 20 μg/ml of DPBS) and incubated at RT described above for 0.5 h. The yeast cells were washed with DPBS three times and suspended in 500 μl of DPBS. Flow cytometry was performed using a BD Biosciences FACSVantage SE equipped with an argon laser excitation at 488 nm. 10,000 cells in each sample were analyzed (CellQuest Pro software).
For immunofluorescence assays, the fungal cells were immunostained and washed as described above and suspended in the 200 μl DPBS buffer. The cells were observed by confocal microscopy (LSM 510, Zeiss). The distribution of the β-(Man)3 and Fba peptide epitopes on the yeast cell surface was compared to that obtained with yeast cells fluorescently stained for detection of the MAb B6.1 epitope.

[4] = system: anti-Fba antibodies in immune sera; test: ELISA inhibition assay with modified Fba peptides as inhibitors; type: binding, mice; settings: compared with original Fba inhibition curve
Method: (§2) The specificity of MAb E2-9 for Fba peptide was determined by an inhibition ELISA as described previously (52, 53). Briefly, Fba-MAP was dissolved in DPBS (5 μg/ml), and the solution was used to coat 96-well ELISA plates (100 μl, overnight at 4° C.). The wells were washed five times with PBST (PBS containing Tween 20, 0.05% [vol/vol] and blocked with 1% bovine serum albumin-PBST. MAb E2-9 produced as described above, was serially diluted up to 10,000 for ELISA measurements. Unless otherwise stated, the serum was diluted 1:100 dilution in DPBS to determine the content of antibody by ELISA. MAb E2-9 was mixed with Fba peptide (inhibitor) (dissolved in PBST at a concentration between 0.1 μM and 1 mM), and the resulting solution of each concentration was added to the Fba-MAP coated microtiter wells (solid phase) in triplicate and incubated at 21 to 23° C. for 2 h. Unless otherwise stated, the concentration of test antigens used to coat the wells was about 5-10 μg/ml. The wells were washed three times with PBST, and goat anti-mouse heavy chain specific for IgM was HRP-conjugated (diluted 1:10,000 in PBST) (Sigma) and 100 μl was added to the corresponding wells and incubated for 1 h at 21 to 23° C. The wells were washed five times with PBST, followed by addition of 100 μl of substrate solution (25 ml of 0.05 M phosphate-citrate buffer [pH 5.0], 200 μl of an aqueous solution of O-phenylenediamine 50 mg/ml [Sigma], and 10 μl of 30% H2O2). Color was allowed to develop for 10 min, stopped by addition of […] of 2 M H2SO4, and read at 492 nm (microtiter plate reader, model 450; Bio-Rad, Richmond, Calif.). The percent inhibition was calculated relative to wells containing antibody without inhibitor.
The specificity of anti-Fba antibodies in immune sera was tested for the modified Fba peptides as determined by ELISA inhibition assay. Peptide 1, original Fba, which was used as an inhibitor, was included as a positive control. The inhibition curve of FIG. 17 serves to compare the curves with the other modified peptides 2-11. FIGS. 18A, 18B, 18C, and 18D show the results of ELISA inhibition assays for peptide 2, peptide 3, peptide 4 and peptide 5, respectively. Each methylated peptide was used as an inhibitor in the designated assay. […] The reaction is dose-dependent for each group, indicating anti-Fba antibodies in immune sera were specific for the modified peptides. […] The binding of peptide 11, which has two extra cysteines may indicate that the binding site of Fba with antibody is located at the carboxyl part of the peptide.

[5] = system: C. albicans strain SC5314; test: Fungal challenge and assessment of protection, strain SC5314; type: in vivo, BALB/c mice; settings: Fba peptide by dendritic cell approach
Method: as §1
To test if vaccination with the Fba peptide pulsed DCs protects mice challenged with a different C. albicans strain, we challenged immunized mice with C. albicans strain SC5314 (ATCC), which is the most commonly used clinical isolate of C. albicans for research purposes. As a positive control, a second group of mice immunized at the same time were challenged with C. albicans strain 3153A.

[6] = system: Fba peptide; test: ELISA antibody responses against the Fba peptide in C57BL/6 mice; type: in vivo; settings: DC-based immunization; 14 days after second booster
Method: By the same DC-based immunization approach used for the BALB/c mice as described above, C57BL/6 mice was tested with the Fba peptide was given alone or as a glycoconjugate compared to the control groups of mice injected with DPBS buffer, or DCs+CFA.
Fourteen days after the second booster, immune sera were tested by ELISA for antibody responses against the Fba peptide.

[7] = system: Fba peptide; test: Rabbit antisera against the Fba peptide (titers); type: in vivo; settings: Fba conjugated to KLH; each of two rabbits; commercial source (Genscript); data not shown
Description: To obtain enough antisera for passive transfer experiments, and to determine whether the Fba peptide is immunologically restricted in other animal species, we obtained rabbit antisera against the peptide from a commercial source (Genscript). Fba was conjugated to keyhole limpet hemocyanin (KLH) prior to the rabbit immunizations.

[8] = system: MAb E2-9; test: Inhibition ELISA (MAb E2-9 on Fba-MAP coated wells, Fba peptide as inhibitor); type: binding; settings: soluble Fba peptide inhibiting MAb E2-9 reactivity with solid phase Fba-MAP
Method: as §2, with “The wells were washed three times with PBST, and goat anti-mouse heavy chain specific for IgM was HRP-conjugated (diluted 1:10,000 in PBST) (Sigma) and 100 μl was added to the corresponding wells and incubated for 1 h at 21 to 23° C. The wells were washed five times with PBST, followed by addition of 100 μl of substrate solution (25 ml of 0.05 M phosphate-citrate buffer [pH 5.0], 200 μl of an aqueous solution of O-phenylenediamine 50 mg/ml [Sigma], and 10 μl of 30% H2O2).” left out

[9] = system: Fba peptide; set-up: species or system BALB/c mice; settings: mouse, in vivo

| Sequence | protection against disseminated candidiasis (survival) [1] | viable fungal units (CFUs) in kidneys [1] | effect on peptide-antibody binding (ELISA inhibition, peptide as inhibitor) [4] | further results |
| --- | --- | --- | --- | --- |
| DSRGNPTVEVDFTT [Eno1] | neither of two other peptides Gap1, or Eno1 induced protection | slightly less fungal burden |  |  |
| FAIPAINVTSSSTV [Fba2] |  |  |  | protection (survival) vs DC+CFA control ([1]; general peptides experiment, DC immunization): failed to induce good protection; antibody responses (ELISA, plates coated with the peptide) [2]: good and specific antibody responses |
| FAIPAINVTSSSTVVAALE [Fba3] |  |  |  | survival rate ([1]; DC immunization): 80%; antibody responses (ELISA, plates coated with the peptide) [2]: able to induce antibody responses; binding of antibody in the immune serum to the peptides expressed on C. albicans cell surface (flow cytometric analysis) [3]: expressed on the fungal surface and are accessible to antibodies in immune sera |
| NRSPSTGEQKSSGI [Gap1] | neither of two other peptides Gap1, or Eno1 induced protection | slightly less fungal burden |  |  |
| PRIGGQRELKKITE [Met6] | a high degree of protection | low or even non-detectable |  |  |
| QGETEEALIQKRSY [Hwp1] | a high degree of protection | low or even non-detectable |  |  |
| SSSTVVAAL [Fba4] |  |  |  | survival rate ([1]; DC immunization): 60%; antibody responses (ELISA, plates coated with the peptide) [2]: able to induce antibody responses; binding of antibody in the immune serum to the peptides expressed on C. albicans cell surface (flow cytometric analysis) [3]: expressed on the fungal surface and are accessible to antibodies in immune sera |
| VPLDGKTITNNQRI [Pgk1] | some protection | low or non-detectable CFUs |  |  |
| YDQVLDLSLLFNAIP [Met6-2] |  |  |  | survival rate ([1]; DC immunization): 80%; antibody responses (ELISA, plates coated with the peptide) [2]: able to induce antibody responses; binding of antibody in the immune serum to the peptides expressed on C. albicans cell surface (flow cytometric analysis) [3]: expressed on the fungal surface and are accessible to antibodies in immune sera |
| YGKDCVKCDLFDYAQE (cysteine added at positions 5 and 8) (cysteines added at positions 5 and 8) [Pep 11] |  |  | bound well to antibody |  |
| YGKDVKDLFDYAQE (methylated at position 1) [Pep2] |  |  | little effect on peptide-antibody binding |  |
| YGKDVKDLFDYAQE (methylated at position 2) [Pep3] |  |  | little effect on peptide-antibody binding |  |
| YGKDVKDLFDYAQE (methylated at position 3) [Pep4] |  |  | little effect on peptide-antibody binding |  |
| YGKDVKDLFDYAQE (methylated at position 5) [Pep5] |  |  | little effect on peptide-antibody binding |  |
| YGKDVKDLFDYAQE (methylated at positions 1 and 8) [Pep10] |  |  | bound well to antibody |  |
| YGKDVKDLFDYAQE [Fba] | a high degree of protection | low or even non-detectable |  | survival time ([5]; vs DCs+CFA or DPBS (P<0.01)): significant prolonged survival time; CFUs in kidneys ([5]; vs controls (P<0.01)): greatly reduced or non-detectable CFUs; antibody responses against the Fba peptide (ELISA, Fba-MAP coated plates) [6]: strong antibody responses; Titers of anti-Fba peptide immune sera [7]: 512,000; concentration of inhibitor (Fba peptide) required to achieve 50% inhibitory concentration [8]: about 10 μg/ml; binding of antibody in the immune serum to the peptides expressed on C. albicans cell surface (flow cytometric analysis) [3]: expressed on the fungal surface and are accessible to antibodies in immune sera; anti-Fba IgM and IgG antibodies in sera [9]: very low levels of anti-Fba IgM and IgG antibodies |
